Source: patent publication US8450502B2, “Pharmaceutical compositions for inhibiting angiogenesis” (Industry-Academic Cooperation Foundation Yonsei University, priority 2008, dated 2013)

Legend:
[1] = test system: human umbilical vein endothelial cells (HUVEC); assay: HUVEC invasion assay (Transwell, VEGF); type: cell-based; details: VEGF 30 ng/mL, HDNT 2.5, 5 μM, 18 hours
Procedure: Invasion of human umbilical vein endothelial cells (HUVEC) was measured in vitro using a TRANSWELL® chamber system (Corning Costar) equipped with a polycarbonate filter. First, a lower part of the filter was coated with 10 μl of gelatin (10 mg/mL) for 1 hour, and an upper part of the filter was coated with 10 μl of MATRIGEL® (3 mg/mL) for 2 hours. […] The coated filter was placed on the TRANSWELL®, and HUVECs (1×10^5 cells/well) were inoculated on the upper part of the filter, followed by cell culture in an incubator for 18 hours. Then, the cells were fixed with 70% methanol and stained with hematoxylin/eosin. Total cells in one filter were microscopically counted to measure a degree of cell invasion (see FIG. 4).

[2] = target: T1, mitochondrial protein QP-C (Homo sapiens, UniProt P14927); assay: Competitive binding assay by fluorescent staining in HUVECs; type: cell-based; details: for Inhibition of binding between coumarin-terpestacin and QP-C (blue fluorescence in the cytoplasm): HUVEC, pretreatment 24 hours with HDNT 10 μM or terpestacin 30 μM, coumarin-terpestacin 20 μM 2 hours
T1 construct: endogenous in cells; host or cells: HUVEC
T1 sequence (P14927 1-111): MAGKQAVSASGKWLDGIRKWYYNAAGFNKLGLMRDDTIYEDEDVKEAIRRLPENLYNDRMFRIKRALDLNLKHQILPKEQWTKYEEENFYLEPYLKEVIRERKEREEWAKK
Procedure: Human umbilical vein endothelial cells (HUVEC) were seeded on a 24-well plate (2×10^4 cells/well) and cultured in EBM-2 (LONZA®) medium containing 10% fetal bovine serum (INVITROGEN®). Then, the cells were washed with PBS buffer (pH 7.4), and the culture medium was replaced with a fresh one. The inventive compound HDNT (10 μM) or the compound terpestacin (30 μM) binding to QP-C was added to each well and the cells were incubated for 24 hours. A fluorescent dye coumarin (20 μM) and coumarin-conjugated terpestacin (20 μM) were each added to the control group and the treated group, followed by incubation for another 2 hours. The cells were washed with PBS buffer. Fluorescent intensity was observed under an IX70 fluorescent microscope (OLYMPUS®) and a microscopic image was taken (see FIG. 7).

[3] = test system: QP-C-expressing bacteriophage T7 (human QP-C); assay: Competitive binding assay by phage display; details: competitor 200 μM, biotinylated terpestacin 5 μM immobilized
Procedure: Bacteriophage T7 (NOVAGEN®) was purchased which encodes cDNA library obtained from live different human tissues (hepatoma, normal liver, dementia brain, normal brain, and normal stomach). A host cell E. coli BLT5615 was infected with Bacteriophage followed by amplification. Biotinylated terpestacin (5 μM) in TBS buffer (pH 7.5) was immobilized on a streptavidin-coated 96-well plate (Pierce Biotechnology), and then the amplified, bacteriophage T7 library (6×1.0^9 pfu/mL) was added to the terpestacin-immobilized wells. After being stirred at room temperature for 1 hour, bacteriophage T7 particles which were not hound to terpestacin were washed with TBS buffer to remove the non-bound bacteriophage T7 particles. Terpestacin-bound bacteriophage T7 particles were elated for 1 hour with addition of terpestacin (100 μM) dissolved in TBS buffer. The elated bacteriophage T7 particles were infected into E. coli strain BLT5615 cultured on LB agar medium. The thus-formed bacteriophage T7 plaques were isolated and DNA sequences were analyzed to obtain bacteriophage expressing a ubiquinone-binding protein (QP-C) of the mitochondria complex III.
QP-C-expressing bacteriophage T7 was infected into a host cell E. coli BLT5615, followed by amplification. […] The thus-formed bacteriophage plaques were counted and the results were compared between the treated group and the control group (see FIG. 6).

[4] = test system: mitochondrial membrane potential of HUVECs; assay: Determination of mitochondrial membrane potential (JC-1 staining); type: cell-based, human; details: HUVEC, HDNT 1, 5, 10 μM, 4 hours
Procedure: Human umbilical vein endothelial cells (HUVEC) were seeded on a 24-well plate (2×10^4 cells/well) and cultured in EBM-2 (LONZA®) medium containing 10% fetal bovine serum (INVITROGEN®). Then, the cells were washed with PBS buffer (pH 7.4) and the culture medium was then replaced with a fresh one. The inventive compound HDNT (1, 5, 10 μM) was added to the culture medium and the cells were incubated for 4 hours. In order to measure changes of the mitochondrial membrane potential, the cells were stained with […] a lipophilic cationic probe 5,5′6,6′-tetrachloro-1,1′,3,3′-tetraethylbenzimidazole-carbocyanine iodide (JC-1, MOLECULAR PROBES®) for 15 min. The carbocyanine cationic dye forms a red fluorescent J-aggregate at a hyperpolarization membrane potential (to −140 mV), and the dye maintains a green fluorescent monomeric form at a depolarization membrane potential (to −100 mV). The stained cells were washed twice with PBS buffer. A microscopic image (×100) was obtained under an IX70 fluorescent microscope OLYMPUS®) (see FIG. 5).

[5] = target: T2, purified QP-C protein (Homo sapiens, UniProt P14927); assay: Competitive binding assay by surface plasmon resonance; details: compound 25 μM, QP-C protein 25 μM, biotinylated terpestacin 100 μM immobilized
T2 construct: GST (N, cleaved yes); made in house; host or cells: E. coli BL21
T2 sequence (P14927 1-111): T1 sequence (P14927 1-111)
Procedure: Using, liver tissue cDNA library as a template, a QP-C gene (GENBANK® Accession No. NM_006294 was amplified by polymerase chain reaction (PCR). Sequences of PCR primers used herein are as follows: forward primer 5′-[…]-3′, and reverse primer 5′-[…]-3′. The QP-C gene was inserted into a multi cloning site (EcoRI/XhoI site) of a pGEX-4T1 vector (Amersham Pharmacia) which was then transformed into E. coli BL21 for protein expression, IPTG (1 mM) was added to the LB culture OD600=0.6) of the transformed bacteria, followed by shaking culture at 37° C. for 4 hours. The cells were disrupted using a sonicator and the expressed GST/QP-C fusion protein was purified by addition of glutathione agarose heads (SIGMA®). In order to remove a GST portion of the fusion protein, thrombin (Amersham Pharmacia) was added thereto at room temperature, followed by overnight stirring. Only the supernatant containing the QP-C protein was recovered by centrifugation (see FIG. 2). […]
The binding sensorgram containing association and dissociation curves was obtained by BIACORE® 2000, and 50 mM NaOH (5 μl) was poured on the sensor chip surface to result in regeneration. […] A surface plasmon resonance response curve was analyzed using BIACORE® Evaluations software, version 3.1 (see FIG. 8).

[6] = test system: human umbilical vein endothelial cells (HUVEC); assay: Tube formation of human umbilical vein endothelial cells (VEGF-induced, Matrigel); type: cell-based; details: VEGF 30 ng/mL, HDNT 2.5, 5 μM, 8 hours
Procedure: A 48-well plate was coated with 150 μl of Matrigel (10 mg/mL, Collaborative Biomedical Products), followed by polymerization at 37° C. for 2 hours. […] The cells were cultured in an incubator for 8 hours while observing morphological changes of the cells under a microscope.

[7] = test system: embryonic chick chorioallantoic membrane (CAM); details: cited from earlier work
[8] = test system: human umbilical vein endothelial cells (HUVEC); details: cited from earlier work
[9] = test system: HIV; details: cited from earlier work

Row | SMILES | VEGF-mediated invasion of HUVECs [1] | Inhibition of binding between coumarin-terpestacin and QP-C (blue fluorescence in the cytoplasm) [2] | Inhibition of binding between biotinylated terpestacin and QP-C-expressing bacteriophage T7 [3] | Change of mitochondrial membrane potential (JC-1 red/green fluorescence) [4] | Inhibition of the binding between biotin-terpestacin and QP-C protein [5] [%] | VEGF-mediated tube formation of HUVECs [6] | Fluorescence staining of HUVECs ([2]; 20 μM, 2 hours) | Angiogenesis of embryonic chick chorioallantoic membrane (CAM) in vivo [7] | Angiogenic responses of HUVEC in vitro [8] | inhibition at 25 µM ([5]; read-out: Inhibition of the binding between biotin-terpestacin and QP-C protein) [%] | Formation of syncytium during HIV infections [9]
1 | O=C1Sc2ccc(S(=O)(=O)Nc3ccc(O)c4ccccc34)c3cccc1c23 [HDNT, 6-((1-hydroxynaphthalen-4-ylamino)dioxysulfone)-2H-naphtho[1,8-bc]thiophen-2-one] | inhibited VEGF-mediated tube formation and invasion of HUVECs in a concentration-dependent manner | blue fluorescence was significantly decreased | effectively inhibited | disrupts the mitochondrial membrane potential | 40 | inhibited VEGF-mediated tube formation and invasion of HUVECs in a concentration-dependent manner | – | – | – | – | –
2 | C/C1=C/CC/C(C)=C/CC2(C)C(=O)C(O)=C(C(C)COC(=O)CCCCCNC(=O)CCCCCNC(=O)Cc3c(C)c4ccc(N)cc4oc3=O)C2C/C=C(\C)C(O)CC1 (stereo not shown) [coumarin-terpestacin] | – | – | – | – | – | – | intense blue fluorescence in the cytoplasm | – | – | – | –
3 | C/C1=C\C[C@]2(C)C(=O)C(O)=C([C@H](C)CO)[C@H]2C/C=C(\C)[C@@H](O)CC/C(C)=C/CC1 [terpestacin] | – | significant attenuation of blue fluorescence | significantly inhibited | – | – | – | – | strongly inhibits angiogenesis | strongly inhibits angiogenic responses | ≤ 60 | inhibit the formation of syncytium
